The results in this text go back to PubChem BioAssay AID1996.

In brackets after ≈: the same amount, converted by molar mass.

For the data set the following is noted: buffer; pH 7.4; 200.0 µM.
`Cn1cc(Cl)cc(C(=O)Nc2ccccc2)c1=O` had a kinetic solubility of 2 µg/mL (≈ 7.61 µM).

In turn, `CCOC(=O)c1c(SC)[nH]c2c(Cl)cccc2c1=O` came in with a kinetic solubility of 1.4 µg/mL (≈ 4.7 µM). The solubility kinetic values of the last two compounds are within 1.5-fold of each other.

On to `COC(OC)C1(C)C(C#N)=C(N)Oc2c1c(=O)oc1ccccc21` (stereo unspecified), for which the solubility (kinetic) came to 5.3 µg/mL (≈ 16.1 µM).

In turn, `NS(=O)(=O)c1ccc(CCNC(=O)c2ccc3nccnc3c2)cc1` yielded a kinetic solubility of more than 53.5 µg/mL.

For the compound `O=[N+]([O-])c1ccc(CSc2ncnc3ccccc23)cc1`, the solubility (kinetic) was 5.6 µg/mL (≈ 18.8 µM).

As for `Cc1cccc(N2CCN(C(=O)c3ccc4ccccc4c3)CC2C)c1` (stereo unspecified), the kinetic solubility is 7.4 µg/mL (≈ 21.5 µM). The solubility kinetic values of the last two compounds are within 1.5-fold of each other.

`C=CCNC(=O)CC12CC3CC(C1)CC(CC(=O)NCC=C)(C3)C2` registered a solubility (kinetic) of more than 49.6 µg/mL.

As for `OCCC1CN(CC#Cc2ccccc2)CCN1C1CCCC1` (stereo unspecified), the solubility (kinetic) was more than 46.9 µg/mL.

Turning to `O=C(O)Cc1ccc(NC(=O)Nc2cccc3ccccc23)cc1`, the kinetic solubility stood at 45.1 µg/mL (≈ 141 µM).

As to `O=CN(c1ccccc1)c1ccc2ccccc2c1`, the solubility (kinetic) turned out to be 14.2 µg/mL (≈ 57.4 µM). Compared with the last compound, the solubility kinetic is about 3.2-fold lower.

The compound `CCOC(=O)Cc1csc(NC(=O)Cc2ccc(Br)cc2)n1` came in with a solubility (kinetic) of 5.9 µg/mL (≈ 15.4 µM).

`C[C@H](NC(=O)c1ccccc1Cl)C(=O)Nc1ccccc1F` displayed a kinetic solubility of more than 48.1 µg/mL.

As to `O=C(Nc1ccccn1)c1ccc(C(=O)c2ccccc2)cc1`, the solubility (kinetic) stood at 21.6 µg/mL (≈ 71.4 µM).

With `N=C1SC(CC(=O)Nc2ccccc2[N+](=O)[O-])C(=O)N1c1ccccc1` (stereo unspecified), the solubility (kinetic) was found to be 0.2 µg/mL (≈ 0.54 µM).

Regarding `COc1ccc(C(=O)c2sc(Nc3ccccc3)nc2N)cc1OC`, the kinetic solubility came to 0.6 µg/mL (≈ 1.69 µM).

On to `O=C(CN1CCN(c2ccccc2)CC1)Nc1ccc(F)cc1`, for which the kinetic solubility was more than 47 µg/mL.

The compound `CCCCN(CC)CCNC(=O)c1cc2c(=O)[nH]c3ccccc3c2n1C` came in with a kinetic solubility of 43.9 µg/mL (≈ 119 µM).

In turn, `CCOc1ccc(S(=O)(=O)NCc2cccnc2)cc1C(C)C` registered a kinetic solubility of more than 50.2 µg/mL.

In turn, `CN=C(NC1CCCCC1)c1ccc([N+](=O)[O-])cc1` yielded a kinetic solubility of more than 39.2 µg/mL.

In turn, `Cc1ccc(-c2nc(C(F)(F)F)cc(=O)[nH]2)cc1` showed a kinetic solubility of 18.4 µg/mL (≈ 72.4 µM).

In turn, `CN(C)/C=C/C(=O)c1ccc(Br)s1` showed a solubility (kinetic) of more than 39 µg/mL.

In turn, `CN1C(=O)C(=Cc2cn(CC#N)c3ccccc23)C(=O)N(C)C1=O` gave a kinetic solubility of 8.1 µg/mL (≈ 25.1 µM).

For `COc1cc(C)c(NC(=O)Cc2ccsc2)cc1OC`, the kinetic solubility worked out at 42.4 µg/mL (≈ 146 µM). This solubility kinetic is about 5.2-fold higher than that of the compound before.

Regarding `COc1ccccc1C(=O)NCCCNC(=O)c1ccccn1`, the solubility (kinetic) is more than 47 µg/mL.

`CC(C)N1CC(C(=O)Nc2ccc(F)c(Cl)c2)CC1=O` (stereo unspecified) gave a solubility (kinetic) of more than 44.8 µg/mL.

For `O=S(=O)(Nc1cccc(S(=O)(=O)N2CCCC2)c1)c1ccc(Cl)cc1`, the solubility (kinetic) was more than 60.1 µg/mL.

In the case of `CCOC(=O)C1CCCN(C(=O)CNC(=O)c2ccc(Br)o2)C1` (stereo unspecified), the solubility (kinetic) was more than 58.1 µg/mL.

As to `CCC1=C([N+](=O)[O-])C(c2ccc3c(c2)OCO3)NC(=O)N1` (stereo unspecified), the kinetic solubility was more than 43.7 µg/mL.

As for `O=C(NC(=O)c1cnccc1C(F)(F)F)Nc1ccccc1`, the solubility (kinetic) was determined as 18.3 µg/mL (≈ 59.2 µM).

In turn, `CN(C)S(=O)(=O)c1cccc(C(=O)Nc2ccccc2C(=O)NC2CC2)c1` displayed a kinetic solubility of 47 µg/mL (≈ 121 µM).

`Cc1ccc(SCC(=O)OCC(=O)NC2(C#N)CCCCC2)cc1` returned a solubility (kinetic) of 47.6 µg/mL (≈ 137 µM).

As to `N#Cc1ccc(OCCN2CCc3ccccc3C2)cc1`, the solubility (kinetic) amounted to 41 µg/mL (≈ 147 µM). This solubility kinetic and that of the compound before are within 1.5-fold of each other.

Turning to `OCCN1CCN(c2nc(-c3ccccc3O)nc3ccccc23)CC1`, the kinetic solubility stood at 37.8 µg/mL (≈ 108 µM).

On to `O=C(NCCNC(=O)c1ccc(F)cc1)c1ccc(F)cc1`, for which the kinetic solubility turned out to be 12.9 µg/mL (≈ 42.4 µM).

`Cc1ccc2c(C)cc(=S)[nH]c2c1` registered a kinetic solubility of 7.1 µg/mL (≈ 37.5 µM).

Compound `Cc1ccc(S(=O)(=O)NCCc2cccs2)cc1` displayed a solubility (kinetic) of more than 42.2 µg/mL.

On to `O=C(NC1CC1)c1ccc(CSCc2ccccc2Cl)o1`, for which the kinetic solubility was more than 48.3 µg/mL.

Take `CCOC(=O)C(=CNc1cscc1S(=O)(=O)C(C)C)C(=O)OCC`: the kinetic solubility was found to be 38.9 µg/mL (≈ 104 µM).

Consider `COc1ccc(C(=O)N/C(=C\c2ccccc2)C(=O)Nc2ccccc2C(=O)O)cc1`, for which the solubility (kinetic) is more than 62.5 µg/mL.

`COc1ccc(Cl)cc1S(=O)(=O)Nc1ccc(Cl)cn1` returned a solubility (kinetic) of 1.3 µg/mL (≈ 3.9 µM).

For the compound `COc1cccc(NC(=O)Nc2cccc(C)n2)c1`, the solubility (kinetic) was 0.3 µg/mL (≈ 1.17 µM).

Regarding `O=C(/C=C/c1cccnc1)c1ccc(O)cc1`, the kinetic solubility was determined as 28.5 µg/mL (≈ 127 µM).

`COc1ccc(C(CNC(=O)c2ccc3c(c2)CCC3)N(C)C)cc1` (stereo unspecified) came in with a solubility (kinetic) of more than 50.8 µg/mL.

`COC(=O)C[N+](C)(C)C/C=C\c1ccccc1.[Br-]` registered a solubility (kinetic) of more than 47.1 µg/mL.

As to `CCOc1ccc(S(=O)(=O)Nc2ccc3c(c2)OCO3)cc1`, the solubility (kinetic) came out at 45.4 µg/mL (≈ 141 µM).

Regarding `COc1cc(N/C(N)=N/c2nc(C)cc(C)n2)cc(OC)c1`, the kinetic solubility is more than 45.2 µg/mL.

Compound `O=C(c1cccs1)N1CCN(C23CC4CC(CC(C4)C2)C3)CC1` had a solubility (kinetic) of more than 49.6 µg/mL.

In turn, `CC1CCCCN1CCCNc1c(C=O)c(=O)[nH]c2ccccc12` (stereo unspecified) returned a kinetic solubility of 46.7 µg/mL (≈ 143 µM).

As for `O=c1oc2ccccc2nc1/C=C(\O)c1ccc(Br)cc1`, the kinetic solubility turned out to be 19 µg/mL (≈ 55.2 µM).

`Cc1cccc(NC(=O)CCCN2C(=O)C3CC=CCC3C2=O)c1` (stereo unspecified): the kinetic solubility was more than 49 µg/mL.

Compound `CCCc1ncc(C(O)c2ccccc2OC)n1C` (stereo unspecified) displayed a solubility (kinetic) of more than 39.1 µg/mL.
